This is an account of results in patent publication US12281108B2, “Pyrrolidinone derivatives as formyl peptide 2 receptor agonists” (BRISTOL-MYERS SQUIBB COMPANY, priority 2018, dated 2025).

For assay [1], the target named is T1, human FPR2 receptors (Homo sapiens, UniProt P25090).
T1 sequence (P25090 1-351): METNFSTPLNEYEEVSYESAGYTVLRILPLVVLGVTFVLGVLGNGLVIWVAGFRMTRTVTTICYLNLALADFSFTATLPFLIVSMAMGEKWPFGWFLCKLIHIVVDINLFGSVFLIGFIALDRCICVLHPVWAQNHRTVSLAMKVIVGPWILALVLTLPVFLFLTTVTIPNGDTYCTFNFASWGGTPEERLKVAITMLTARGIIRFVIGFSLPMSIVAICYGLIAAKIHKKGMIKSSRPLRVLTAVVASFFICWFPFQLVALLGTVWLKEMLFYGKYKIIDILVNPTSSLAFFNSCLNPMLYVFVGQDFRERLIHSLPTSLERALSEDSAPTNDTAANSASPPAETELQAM
The assay is described as follows: FPR2 cAMP assay in CHO cells overexpressing human FPR2 (HTRF). The class given is cell-based. The text has this:
(§1) N-formyl peptide receptors (FPRs) are a family of chemo attractant receptors that facilitate leukocyte response during inflammation. FPRs belong to the seven-transmembrane G protein-coupled receptor superfamily and are linked to inhibitory G-proteins (Gi). Three family members (FPR1, FPR2 and FPR3) have been identified in humans and are predominantly found in myeloid cells with varied distribution and have also been reported in multiple organs and tissues. After agonist binding, the FPRs activate a multitude of physiological pathways, such as intra cellular signaling transduction, Ca^2+ mobilization and transcription. The family interacts with a diverse set of ligands that includes proteins, polypeptides and fatty acid metabolites which activate both pro-inflammatory and pro-resolution downstream responses. FPR2 and FPR1 Cyclic Adenosine Monophosphate (cAMP) Assays were used to measure the in vitro activity of the compounds disclosed in this application.
FPR2 and FPR1 Cyclic Adenosine Monophosphate (cAMP) Assays. A mixture of forskolin (5 μM final for FPR2 or 10 μM final for FPR1) and IBMX (200 μM final) were added to 384-well Proxiplates (Perkin-Elmer) pre-dotted with test compounds in DMSO (1% final) at final concentrations in the range of 0.020 nM to 100 μM. Chinese Hamster Ovary cells (CHO) overexpressing human FPR1 or human FPR2 receptors were cultured in F-12 (Ham's) medium supplemented with 10% qualified FBS, 250 μg/ml zeocin and 300 μg/ml hygromycin (Life Technologies). Reactions were initiated by adding 2,000 human FPR2 cells per well or 4,000 human FPR1 cells per well in Dulbecco's PBS (with calcium and magnesium) (Life Technologies) supplemented with 0.1% BSA (Perkin-Elmer). The reaction mixtures were incubated for 30 min at room temperature. The level of intracellular cAMP was determined using the HTRF HiRange cAMP assay reagent kit (Cisbio) according to manufacturer's instruction. Solutions of cryptate conjugated anti-cAMP and d2 flurorophore-labelled cAMP were made in a supplied lysis buffer separately. Upon completion of the reaction, the cells were lysed with equal volume of the d2-cAMP solution and anti-cAMP solution. After a 1-h room temperature incubation, time-resolved fluorescence intensity was measured using the Envision (Perkin-Elmer) at 400 nm excitation and dual emission at 590 nm and 665 nm. A calibration curve was constructed with an external cAMP standard at concentrations ranging from 1 μM to 0.1 pM by plotting the fluorescent intensity ratio from 665 nm emission to the intensity from the 590 nm emission against cAMP concentrations. The potency and activity of a compound to inhibit cAMP production was then determined by fitting to a 4-parametric logistic equation from a plot of cAMP level versus compound concentrations.
A general note: Changes in cAMP serve as a functional read-out for many G protein-coupled receptors.

The target of assay [2] is T2, human FPR1 receptors (Homo sapiens, UniProt P21462).
T2 sequence (P21462 1-350): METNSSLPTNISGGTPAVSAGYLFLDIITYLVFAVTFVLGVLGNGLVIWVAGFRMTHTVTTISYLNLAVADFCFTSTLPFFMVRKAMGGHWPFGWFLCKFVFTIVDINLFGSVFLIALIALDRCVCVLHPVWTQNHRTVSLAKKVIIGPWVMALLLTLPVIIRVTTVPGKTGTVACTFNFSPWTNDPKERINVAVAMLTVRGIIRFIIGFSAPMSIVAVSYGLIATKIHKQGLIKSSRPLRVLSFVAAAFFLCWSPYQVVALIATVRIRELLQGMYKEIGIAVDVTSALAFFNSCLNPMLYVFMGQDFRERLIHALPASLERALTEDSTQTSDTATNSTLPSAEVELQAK
The assay is described as follows: FPR1 cAMP assay in CHO cells overexpressing human FPR1 (HTRF). It is filed as cell-based. As to conditions: forskolin 10 μM, inhibition of cAMP production, read-out: hFPR1 cAMP EC50.
Text: as §1
FPR2 and FPR1 Cyclic Adenosine Monophosphate (cAMP) Assays. A mixture of forskolin (5 μM final for FPR2 or 10 μM final for FPR1) and IBMX (200 μM final) were added to 384-well Proxiplates (Perkin-Elmer) pre-dotted with test compounds in DMSO (1% final) at final concentrations in the range of 0.020 nM to 100 μM. Chinese Hamster Ovary cells (CHO) overexpressing human FPR1 or human FPR2 receptors were cultured in F-12 (Ham's) medium supplemented with 10% qualified FBS, 250 μg/ml zeocin and 300 μg/ml hygromycin (Life Technologies). […] The level of intracellular cAMP was determined using the HTRF HiRange cAMP assay reagent kit (Cisbio) according to manufacturer's instruction. […] After a 1-h room temperature incubation, time-resolved fluorescence intensity was measured using the Envision (Perkin-Elmer) at 400 nm excitation and dual emission at 590 nm and 665 nm. […] The potency and activity of a compound to inhibit cAMP production was then determined by fitting to a 4-parametric logistic equation from a plot of cAMP level versus compound concentrations.

Setting [3] is: CHO cells overexpressing human FPR2, forskolin 5 μM, inhibition of cAMP production, read-out: hFPR2 cAMP2 EC50.
The mark [4] stands for this setting: hFPR2 assay, potency bins, read-out: hFPR2 agonist activity EC50.

Structures are written as SMILES. Where two headings read alike, the source gives them in different places.

In general, EC50 refers to the midpoint of the concentration-response curve. On to `COc1cc(F)c([C@@H]2CNC(=O)[C@H]2Nc2nnc(-c3ccc(Oc4ccc(C(F)(F)F)nc4)cc3)o2)c(F)c1` [Example 58, (3S,4R)-4-(2,6-difluoro-4-methoxyphenyl)-3-{[5-(4-{[6-(trifluoromethyl)pyridin-3-yl]oxy}phenyl)-1,3,4-oxadiazol-2-yl]amino}pyrrolidin-2-one], for which the results for the EC50 in assay [1] (setting [3]) and in assay [2] were 71 nM and 870 nM, respectively.

In the case of `COc1cc(F)c([C@@H]2CNC(=O)[C@H]2Nc2nnc(-c3ccc(SC(F)(F)F)cc3)o2)c(F)c1` [Example 18, (3S,4R)-4-(2,6-difluoro-4-methoxyphenyl)-3-[(5-{4-[(trifluoromethyl)sulfanyl]phenyl}-1,3,4-oxadiazol-2-yl)amino]pyrrolidin-2-one], the EC50 in assay [1] (setting [3]) amounted to 6.7 nM; in assay [2], 160 nM.

Regarding `COc1cc(F)c([C@@H]2CNC(=O)[C@H]2Nc2nnc(-c3ccc(Oc4cnc(Cl)cn4)cc3)o2)c(F)c1` [Example 60, (3S,4R)-3-[(5-{4-[(5-chloropyrazin-2-yl)oxy]phenyl}-1,3,4-oxadiazol-2-yl)amino]-4-(2,6-difluoro-4-methoxyphenyl)pyrrolidin-2-one], the EC50 in assay [1] (setting [4]) was in the range of 40 to 150 nM.

As for `COc1cc(F)c([C@@H]2CNC(=O)[C@H]2Nc2cc(-c3ccc(Cl)cc3)on2)c(F)c1` [Example 21, (3S,4R)-3-{[5-(4-chlorophenyl)-1,2-oxazol-3-yl]amino}-4-(2,6-difluoro-4-methoxyphenyl)pyrrolidin-2-one], the EC50 in assay [1] (setting [3]) worked out at 10 nM.

Consider `COc1cc(F)c([C@@H]2CNC(=O)[C@H]2Nc2nnc(-c3ccc(C(F)(F)F)cc3)o2)c(F)c1` [Example 8, (3S,4R)-4-(2,6-difluoro-4-methoxyphenyl)-3-({5-[4-(trifluoromethyl)phenyl]-1,3,4-oxadiazol-2-yl}amino)pyrrolidin-2-one], for which, in assay [1] (setting [4]), the concentration for a half-maximal effect (EC50) was no more than 40 nM.

Turning to `COc1cc(F)c([C@@H]2CNC(=O)[C@H]2Nc2nnc(-c3ccc([S+]([O-])C(F)(F)F)cc3)o2)c(F)c1` (stereo partly drawn) [Example 26, (3S,4R)-4-(2,6-difluoro-4-methoxyphenyl)-3-{[5-(4-trifluoromethanesulfinylphenyl)-1,3,4-oxadiazol-2-yl]amino}pyrrolidin-2-one], the EC50 in assay [1] (setting [4]) is 150 to 1000 nM.

As for `COc1cc(F)c([C@@H]2CNC(=O)[C@H]2Nc2nnc(-c3ccc(SC(F)(F)F)cc3)s2)c(F)c1` [Example 29, (3S,4R)-4-(2,6-difluoro-4-methoxyphenyl)-3-[(5-{4-[(trifluoromethyl)sulfanyl]phenyl}-1,3,4-thiadiazol-2-yl)amino]pyrrolidin-2-one], the EC50 in assay [1] (setting [4]) is 40 to 150 nM.

Regarding `COc1cc(F)c([C@@H]2CNC(=O)[C@H]2Nc2nnc(C3CC3c3ccccc3OC)o2)c(F)c1` (stereo partly drawn) [Example 44, (3S,4R)-4-(2,6-difluoro-4-methoxyphenyl)-3-({5-[2-(2-methoxyphenyl)cyclopropyl]-1,3,4-oxadiazol-2-yl}amino)pyrrolidin-2-one], in assay [1] (setting [4]), the EC50 lay in the range of 40 to 150 nM.

Consider `COc1cc(F)c([C@@H]2CNC(=O)[C@H]2Nc2nnc(-c3ccc(-n4cccn4)cc3)o2)c(F)c1` [Example 13, (3S,4R)-4-(2,6-difluoro-4-methoxyphenyl)-3-({5-[4-(1H-pyrazol-1-yl)phenyl]-1,3,4-oxadiazol-2-yl}amino)pyrrolidin-2-one], for which the EC50 in assay [1] (setting [4]) was 150 to 1000 nM.

Take `COc1cc(F)c([C@@H]2CNC(=O)[C@H]2Nc2cc(-c3ccc(C(F)F)cc3)on2)c(F)c1` [Example 22, (3S,4R)-4-(2,6-difluoro-4-methoxyphenyl)-3-({5-[4-(difluoromethyl)phenyl]-1,2-oxazol-3-yl}amino)pyrrolidin-2-one]: the EC50 was 890 nM in assay [1] (setting [3]) and 2900 nM in assay [2].

With `COc1cc(F)c([C@@H]2CNC(=O)[C@H]2Nc2nnc(-c3ccc(C(C)C)cc3)o2)c(F)c1` [Example 39, (3S,4R)-4-(2,6-difluoro-4-methoxyphenyl)-3-({5-[4-(propan-2-yl)phenyl]-1,3,4-oxadiazol-2-yl}amino)pyrrolidin-2-one], the EC50 in assay [1] (setting [4]) lay in the range of 150 to 1000 nM.

`COc1cc(F)c([C@@H]2CNC(=O)[C@H]2Nc2nc3ccc(Cl)cc3o2)c(F)c1` [Example 1, (3S,4R)-3-[(6-chloro-1,3-benzoxazol-2-yl)amino]-4-(2,6-difluoro-4-methoxyphenyl)pyrrolidin-2-one]: the concentration giving a half-maximal response (EC50) in assay [1] (setting [4]) fell in the range of 150 to 1000 nM.
